Experimental data as given in the supplement of paper PMC7017272.
± gives the standard deviation of the averaged measurements.

What was measured:
Conditions in all cases: treatment time: 3 days
UT-SCC-73 [1] = test: drug sensitivity score (DSS); higher = more sensitive; extreme values may be limits of the assay
Summary of the method: (§1)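 HPV-negative HNSCC cell lines were plated at 500 cells/well in 384-well plates, either on plastic, on wells coated with Matrigel or Myogel (500 µg/mL), or embedded in Matrigel or Myogel plus rat collagen I. Each compound was tested at five 10-fold concentrations over 3 days. Viability was measured by CellTiter-Glo 2.0 luminescence, and IC50, maximal inhibition and drug sensitivity score came from percent-inhibition dose–response curves fitted in the FIMM pipeline after normalisation to vehicle (0.1% DMSO) and cell-killing control wells.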

UT-SCC-81 [2] = test: as above
Summary of the method: as §1

UT-SCC-42A [3] = test: as above
Summary of the method: as §1

UT-SCC-28 [4] = test: as above
Summary of the method: as §1

UT-SCC-42B [5] = test: as above
Summary of the method: as §1

UT-SCC-40 [6] = test: as above
Summary of the method: as §1

UT-SCC-44 [7] = test: as above
Summary of the method: as §1

UT-SCC-106A [8] = test: as above
Summary of the method: as §1

UT-SCC-8 [9] = test: as above
Summary of the method: as §1

UT-SCC-73 [10] = test: maximal % inhibition of viability relative to DMSO; higher = stronger effect
Method: (§2)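 HNSCC cell lines (500 cells/well, 384-well) were cultured on plastic, on top of (2D) or embedded (3D) in Matrigel or human leiomyoma matrix Myogel (500 ug/mL; Myogel 3D mixed with rat collagen I). Cells were treated for 3 days with 5 ten-fold concentrations of each drug, and viability was read by CellTiter-Glo. Viability was normalised to DMSO and benzethonium chloride controls and fitted with the FIMM DSRT pipeline to give IC50 (nM), maximal % inhibition and DSS. Suffixes _1/_2/_3 are replicates. Only inhibition-mode (IC50) fits are kept.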

UT-SCC-81 [11] = test: as above
Method: as §2

UT-SCC-42A [12] = test: as above
Method: as §2

UT-SCC-28 [13] = test: as above
Method: as §2

UT-SCC-42B [14] = test: as above
Method: as §2

UT-SCC-40 [15] = test: as above
Method: as §2

UT-SCC-44 [16] = test: as above
Method: as §2

UT-SCC-106A [17] = test: as above
Method: as §2

UT-SCC-8 [18] = test: as above
Method: as §2

UT-SCC-14 = test: as above
Method: as §2

UT-SCC-24B = test: as above
Method: as §2

[19] = culture condition: embedded in Matrigel
[20] = culture condition: embedded in Myogel + collagen I
[21] = culture condition: on top of Matrigel
[22] = culture condition: on top of Myogel
[23] = culture condition: plastic 2D (no matrix)

COc1cc(F)c(F)c(Nc2ccc(I)cc2F)c1NS(=O)(=O)C1(C[C@H](O)CO)CC1 [Refametinib]
drug sensitivity score (UT-SCC-73 [1]; [19]): 25 ± 1.3 DSS
drug sensitivity score (UT-SCC-73 [1]; [20]): 16 ± 3.4 DSS
drug sensitivity score (UT-SCC-73 [1]; [21]): 24 ± 0.8 DSS
drug sensitivity score (UT-SCC-73 [1]; [22]): 15.1 ± 1.1 DSS
drug sensitivity score (UT-SCC-73 [1]; [23]): 20 ± 1.4 DSS
drug sensitivity score (UT-SCC-81 [2]; [19]): 29.8 ± 2 DSS
drug sensitivity score (UT-SCC-81 [2]; [20]): 5.87 ± 0.35 DSS
drug sensitivity score (UT-SCC-81 [2]; [21]): 21.1 ± 1.4 DSS
drug sensitivity score (UT-SCC-81 [2]; [22]): 5.53 ± 1.2 DSS
drug sensitivity score (UT-SCC-81 [2]; [23]): 8.8 ± 0.96 DSS
drug sensitivity score (UT-SCC-42A [3]; [19]): 18 ± 1.1 DSS
drug sensitivity score (UT-SCC-42A [3]; [20]): 8.7 ± 1.7 DSS
drug sensitivity score (UT-SCC-42A [3]; [21]): 19.2 ± 0.8 DSS
drug sensitivity score (UT-SCC-42A [3]; [22]): 11.5 ± 1.4 DSS
drug sensitivity score (UT-SCC-42A [3]; [23]): 15.3 ± 0.1 DSS
drug sensitivity score (UT-SCC-28 [4]; [19]): 9.8 ± 1.8 DSS
drug sensitivity score (UT-SCC-28 [4]; [20]): 4.67 ± 4.2 DSS
drug sensitivity score (UT-SCC-28 [4]; [21]): 13.2 ± 2.8 DSS
drug sensitivity score (UT-SCC-28 [4]; [23]): 4.4 ± 2.4 DSS
drug sensitivity score (UT-SCC-42B [5]; [19]): 25.5 ± 1.9 DSS
drug sensitivity score (UT-SCC-42B [5]; [21]): 15.7 ± 1.7 DSS
drug sensitivity score (UT-SCC-42B [5]; [22]): 5.27 ± 0.5 DSS
drug sensitivity score (UT-SCC-42B [5]; [23]): 8.27 ± 1.1 DSS
drug sensitivity score (UT-SCC-40 [6]; [19]): 26.9 ± 1.2 DSS
drug sensitivity score (UT-SCC-40 [6]; [20]): 16.8 ± 2 DSS
drug sensitivity score (UT-SCC-40 [6]; [21]): 22.5 ± 1.8 DSS
drug sensitivity score (UT-SCC-40 [6]; [22]): 14.3 ± 1.1 DSS
drug sensitivity score (UT-SCC-40 [6]; [23]): 14.1 ± 1.1 DSS
drug sensitivity score (UT-SCC-44 [7]; [19]): 23.7 ± 1.5 DSS
drug sensitivity score (UT-SCC-44 [7]; [20]): 8.1 ± 2.3 DSS
drug sensitivity score (UT-SCC-44 [7]; [21]): 18.2 ± 2.5 DSS
drug sensitivity score (UT-SCC-44 [7]; [22]): 7.4 ± 1.2 DSS
drug sensitivity score (UT-SCC-44 [7]; [23]): 15.3 ± 0.64 DSS
drug sensitivity score (UT-SCC-106A [8]; [19]): 17.8 ± 1.8 DSS
drug sensitivity score (UT-SCC-106A [8]; [20]): 3.97 ± 0.67 DSS
drug sensitivity score (UT-SCC-106A [8]; [21]): 21.6 ± 1.2 DSS
drug sensitivity score (UT-SCC-106A [8]; [22]): 5.3 ± 0.82 DSS
drug sensitivity score (UT-SCC-106A [8]; [23]): 20.4 ± 0.42 DSS
drug sensitivity score (UT-SCC-8 [9]; [19]): 15.7 ± 1.7 DSS
drug sensitivity score (UT-SCC-8 [9]; [20]): 6.63 ± 3.1 DSS
drug sensitivity score (UT-SCC-8 [9]; [21]): 12.5 ± 1.5 DSS
drug sensitivity score (UT-SCC-8 [9]; [22]): 10.3 ± 2 DSS
drug sensitivity score (UT-SCC-8 [9]; [23]): 10.9 ± 2.8 DSS
maximal % inhibition of viability (UT-SCC-73 [10]; [19]): 85.7 ± 3.9%
maximal % inhibition of viability (UT-SCC-73 [10]; [20]): 73.4 ± 14%
maximal % inhibition of viability (UT-SCC-73 [10]; [21]): 81.8 ± 1.5%
maximal % inhibition of viability (UT-SCC-73 [10]; [22]): 72 ± 2.7%
maximal % inhibition of viability (UT-SCC-73 [10]; [23]): 75.8 ± 3.1%
maximal % inhibition of viability (UT-SCC-81 [11]; [19]): 87.7 ± 0.46%
maximal % inhibition of viability (UT-SCC-81 [11]; [20]): 50.7 ± 1.9%
maximal % inhibition of viability (UT-SCC-81 [11]; [21]): 82.7 ± 0.99%
maximal % inhibition of viability (UT-SCC-81 [11]; [22]): 52 ± 3.4%
maximal % inhibition of viability (UT-SCC-81 [11]; [23]): 73.1 ± 2.5%
maximal % inhibition of viability (UT-SCC-42A [12]; [19]): 61.2 ± 1.2%
maximal % inhibition of viability (UT-SCC-42A [12]; [20]): 42.4 ± 6.9%
maximal % inhibition of viability (UT-SCC-42A [12]; [21]): 61.9 ± 0.94%
maximal % inhibition of viability (UT-SCC-42A [12]; [22]): 48.8 ± 5.2%
maximal % inhibition of viability (UT-SCC-42A [12]; [23]): 58.8 ± 3.1%
maximal % inhibition of viability (UT-SCC-28 [13]; [19]): 49.8 ± 4%
maximal % inhibition of viability (UT-SCC-28 [13]; [20]): 33 ± 8.1%
maximal % inhibition of viability (UT-SCC-28 [13]; [21]): 45.1 ± 8.6%
maximal % inhibition of viability (UT-SCC-28 [13]; [23]): 23.7 ± 2%
maximal % inhibition of viability (UT-SCC-42B [14]; [19]): 79.1 ± 7.6%
maximal % inhibition of viability (UT-SCC-42B [14]; [21]): 64.1 ± 4.8%
maximal % inhibition of viability (UT-SCC-42B [14]; [22]): 46.5 ± 1.5%
maximal % inhibition of viability (UT-SCC-42B [14]; [23]): 47.5 ± 2.6%
maximal % inhibition of viability (UT-SCC-40 [15]; [19]): 80.9 ± 2.5%
maximal % inhibition of viability (UT-SCC-40 [15]; [20]): 76 ± 7.2%
maximal % inhibition of viability (UT-SCC-40 [15]; [21]): 75.9 ± 1.6%
maximal % inhibition of viability (UT-SCC-40 [15]; [22]): 61.23 ± 0.5%
maximal % inhibition of viability (UT-SCC-40 [15]; [23]): 63.2 ± 2.9%
maximal % inhibition of viability (UT-SCC-44 [16]; [19]): 90.4 ± 2.6%
maximal % inhibition of viability (UT-SCC-44 [16]; [20]): 55.1 ± 5%
maximal % inhibition of viability (UT-SCC-44 [16]; [21]): 73.2 ± 7%
maximal % inhibition of viability (UT-SCC-44 [16]; [22]): 56.9 ± 0.9%
maximal % inhibition of viability (UT-SCC-44 [16]; [23]): 62.2 ± 4.4%
maximal % inhibition of viability (UT-SCC-106A [17]; [19]): 53.7 ± 4.7%
maximal % inhibition of viability (UT-SCC-106A [17]; [20]): 36.7 ± 3.4%
maximal % inhibition of viability (UT-SCC-106A [17]; [21]): 66 ± 2.5%
maximal % inhibition of viability (UT-SCC-106A [17]; [22]): 43.4 ± 3.1%
maximal % inhibition of viability (UT-SCC-106A [17]; [23]): 67.33 ± 0.64%
maximal % inhibition of viability (UT-SCC-8 [18]; [19]): 88.8 ± 1.6%
maximal % inhibition of viability (UT-SCC-8 [18]; [20]): 74.1 ± 13%
maximal % inhibition of viability (UT-SCC-8 [18]; [21]): 81.7 ± 2.5%
maximal % inhibition of viability (UT-SCC-8 [18]; [22]): 73 ± 5.1%
maximal % inhibition of viability (UT-SCC-8 [18]; [23]): 80.2 ± 3.9%
maximal % inhibition of viability (UT-SCC-14; [19]): 62.5 ± 5.1%
maximal % inhibition of viability (UT-SCC-14; [20]): 57 ± 5.9%
maximal % inhibition of viability (UT-SCC-14; [21]): 52.9 ± 9.5%
maximal % inhibition of viability (UT-SCC-14; [22]): 52.2 ± 5.8%
maximal % inhibition of viability (UT-SCC-14; [23]): 47.7 ± 7.5%
maximal % inhibition of viability (UT-SCC-24B; [19]): 72.4 ± 3.9%
maximal % inhibition of viability (UT-SCC-24B; [20]): 86.3 ± 3.8%
maximal % inhibition of viability (UT-SCC-24B; [21]): 72.9 ± 4.8%
maximal % inhibition of viability (UT-SCC-24B; [22]): 72.2 ± 2.3%
maximal % inhibition of viability (UT-SCC-24B; [23]): 84 ± 2.2%
